Measurements as given in patent US12606541B2, “PPARg modulators and methods of use” (Eisai R&D Management Co., Ltd., priority 2020, dated 2026).
Like-named read-outs stand apart in the source and are kept apart here.

Legend:
UM-UC-9 engineered cells = assay: Cell proliferation / short-term viability assay, CellTiter-Glo 144 h; assay type: cell-based, human; conditions: read-out: CTGlo 144 h UMUC9.5, G150
Method in brief: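 UM-UC-9 engineered assay-ready cells seeded at 500 cells/well in high-glucose DMEM/10% FBS, treated from dose-response plates, grown at 37° C, 5% CO2. CellTiter-Glo 2.0 luminescence read on day 7, with a day-0 pretreatment plate as T0 reference and DMSO wells as negative control.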

His6-TEV-PPARγ-(234-505) = target: T1, His6-TEV-PPARγ-(234-505) (Homo sapiens, UniProt P37231); assay: TR-FRET Assay to Measure Co-R Peptide Recruitment to PPARγ; assay type: biochemical; conditions: Co-R peptide (SMRT-ID2) recruitment; top final concentration 20 μM; read-out: TR-FRET i-Ag; AC50
T1 construct: The His6-TEV-PPARγ-(234-505) protein for assay was expressed and purified; TEV cleavage site (N); made in house
T1 sequence (P37231 234-505): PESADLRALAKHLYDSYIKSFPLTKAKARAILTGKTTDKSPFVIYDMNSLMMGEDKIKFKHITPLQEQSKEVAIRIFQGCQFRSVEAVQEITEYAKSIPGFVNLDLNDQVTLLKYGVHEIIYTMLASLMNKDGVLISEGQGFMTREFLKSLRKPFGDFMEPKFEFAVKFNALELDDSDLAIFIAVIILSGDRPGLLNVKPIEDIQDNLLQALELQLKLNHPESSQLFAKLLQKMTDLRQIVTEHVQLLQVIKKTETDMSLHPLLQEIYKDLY
Method in brief: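 His-tagged PPARγ (or controls) was preincubated with compound for 20 minutes at room temperature, then 5 nM anti-His terbium antibody and 200 nM FITC-labeled SMRT-ID2 corepressor peptide (final) were added for a further hour. TR-FRET signal was normalized to percent response using 500 nM T0070907 and DMSO controls.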

Row | Compound | IC50 (UM-UC-9 engineered cells; Homo sapiens, UM-UC-9, 144 h) [nM] | AC50 (His6-TEV-PPARγ-(234-505)) [nM] | IC50 (UM-UC-9 engineered cells) [nM]
1 | COc1cc(-c2cc(C(=O)N3CC[C@H](C(=O)NCc4ncc(N5C[C@H]6C[C@@H]5CN6)cn4)CC34CC4)[nH]n2)c(F)cn1 (mixture of isomers) [Example 467, (S)—N-((5-((1R,4R)-2,5-diazabicyclo[2.2.1]heptan-2-yl)pyrimidin-2-yl)methyl)-4-(3-(5-fluoro-2-methoxypyridin-4-yl)-1H-pyrazole-5-carbonyl)-4-azaspiro[2.5]octane-7-carboxamide and (S)—N-((5-((1S,4S)-2,5-diazabicyclo[2.2.1]heptan-2-yl)pyrimidin-2-yl)methyl)-4-(3-(5-fluoro-2-methoxypyridin-4-yl)-1H-pyrazole-5-carbonyl)-4-azaspiro[2.5]octane-7-carboxamide] | > 10000 | 951 | –
2 | COc1cc(-c2cc(C(=O)N3CCC(C(=O)NCc4ncc(N5CCNC6CC65)cn4)CC34CC4)n[nH]2)c(F)cn1 (mixture of isomers) [Example 469, (S)—N-((5-((1S,6R)-2,5-diazabicyclo[4.1.0]heptan-2-yl)pyrimidin-2-yl)methyl)-4-(3-(5-fluoro-2-methoxypyridin-4-yl)-1H-pyrazole-5-carbonyl)-4-azaspiro[2.5]octane-7-carboxamide and (S)—N-((5-((1R,6S)-2,5-diazabicyclo[4.1.0]heptan-2-yl)pyrimidin-2-yl)methyl)-4-(3-(5-fluoro-2-methoxypyridin-4-yl)-1H-pyrazole-5-carbonyl)-4-azaspiro[2.5]octane-7-carboxamide] | – | 78.5 | 9020
3 | COc1cc(-c2cc(C(=O)N3CCC(C(=O)NC4CN(CC5(O)CC5)CC4(F)F)CC34CC4)n[nH]2)c(F)cn1 (mixture of isomers) [Example 470, (S)—N—((R)-4,4-difluoro-1-((1-hydroxycyclopropyl)methyl)pyrrolidin-3-yl)-4-(3-(5-fluoro-2-methoxypyridin-4-yl)-1-pyrazole-5-carbonyl)-4-azaspiro[2.5]octane-7-carboxamide and (S)—N—((S)-4,4-difluoro-1-((1-hydroxycyclopropyl)methyl)pyrrolidin-3-yl)-4-(3-(5-fluoro-2-methoxypyridin-4-yl)-1H-pyrazole-5-carbonyl)-4-azaspiro[2.5]octane-7-carboxamide] | – | 112 | 897
4 | COc1cc(-c2cc(C(=O)N3CCC(C(=O)NC4CCN(c5ncc(C#N)cn5)C4)CC34CC4)n[nH]2)c(F)cn1 (mixture of isomers) [Example 472, (S)—N—((R)-1-(5-cyanopyrimidin-2-yl)pyrrolidin-3-yl)-4-(5-(5-fluoro-2-methoxypyridin-4-yl)-1H-pyrazole-3-carbonyl)-4-azaspiro[2.5]octane-7-carboxamide and (S)—N—((S)-1-(5-cyanopyrimidin-2-yl)pyrrolidin-3-yl)-4-(5-(5-fluoro-2-methoxypyridin-4-yl)-1H-pyrazole-3-carbonyl)-4-azaspiro[2.5]octane-7-carboxamide] | – | 2.9 | 24.2
5 | COc1cc(-c2cc(C(=O)N3CCC(C(=O)NC4CCC(O)(C(F)(F)F)C(O)C4)CC34CC4)n[nH]2)c(F)cn1 (mixture of isomers) [Example 474-A] | – | 336 | 6210
6 | COc1cc(-c2cc(C(=O)N3CCC(C(=O)NC4CCC(O)(C(F)(F)F)C(O)C4)CC34CC4)n[nH]2)c(F)cn1 (mixture of isomers) [Example 474-B] | – | 4.6 | 50.6
7 | CC(O)c1cc(-c2cc(C(=O)N3CCC(C(=O)NCc4ncc(F)cc4Cl)CC34CC4)n[nH]2)c(F)cn1 (mixture of isomers) [Example 478] | – | 38.8 | 415
8 | COc1cc(-c2cc(C(=O)N3CCC(C(=O)NC4CCCn5ccnc54)CC34CC4)n[nH]2)c(F)cn1 (mixture of isomers) [Example 479, (S)-4-(5-(5-fluoro-2-methoxypyridin-4-yl)-1H-pyrazole-3-carbonyl)-N—((R)-5,6,7,8-tetrahydroimidazo[1,2-a]pyridin-8-yl)-4-azaspiro[2.5]octane-7-carboxamide and (S)-4-(5-(5-fluoro-2-methoxypyridin-4-yl)-1H-pyrazole-3-carbonyl)-N—((S)-5,6,7,8-tetrahydroimidazo[1,2-a]pyridin-8-yl)-4-azaspiro[2.5]octane-7-carboxamide] | – | 132 | 1470
9 | COc1cc(-c2cc(C(=O)N3CCC(C(=O)NCc4nccnc4C4CC4CO)CC34CC4)n[nH]2)c(F)cn1 (mixture of isomers) [Example 481, (S)-4-(5-(5-fluoro-2-methoxypyridin-4-yl)-1H-pyrazole-3-carbonyl)-N-((3-((1S,2S)-2-(hydroxymethyl)cyclopropyl)pyrazin-2-yl)methyl)-4-azaspiro[2.5]octane-7-carboxamide and (S)-4-(5-(5-fluoro-2-methoxypyridin-4-yl)-1H-pyrazole-3-carbonyl)-N-((3-((1R,2R)-2-(hydroxymethyl)cyclopropyl)pyrazin-2-yl)methyl)-4-azaspiro[2.5]octane-7-carboxamide] | – | 129 | 1220
10 | COc1cc(-c2cc(C(=O)N3CCC(C(=O)NC4CCN(c5ccc(C#N)cn5)C4)CC34CC4)n[nH]2)c(F)cn1 (mixture of isomers) [Example 489, (S)—N—((R)-1-(5-cyanopyridin-2-yl)pyrrolidin-3-yl)-4-(5-(5-fluoro-2-methoxypyridin-4-yl)-1H-pyrazole-3-carbonyl)-4-azaspiro[2.5]octane-7-carboxamide and (S)—N—((S)-1-(5-cyanopyridin-2-yl)pyrrolidin-3-yl)-4-(5-(5-fluoro-2-methoxypyridin-4-yl)-1H-pyrazole-3-carbonyl)-4-azaspiro[2.5]octane-7-carboxamide] | – | 0.7 | 5.5
11 | COc1cc(-c2cc(C(=O)N3CCC(C(=O)NC4CN(c5cnc(C)cn5)CC4(F)F)CC34CC4)n[nH]2)c(F)cn1 (mixture of isomers) [Example 490, (S)—N—((S)-4,4-difluoro-1-(5-methylpyrazin-2-yl)pyrrolidin-3-yl)-4-(5-(5-fluoro-2-methoxypyridin-4-yl)-1H-pyrazole-3-carbonyl)-4-azaspiro[2.5]octane-7-carboxamide and (S)—N—((R)-4,4-difluoro-1-(5-methylpyrazin-2-yl)pyrrolidin-3-yl)-4-(5-(5-fluoro-2-methoxypyridin-4-yl)-1H-pyrazole-3-carbonyl)-4-azaspiro[2.5]octane-7-carboxamide] | – | 1.9 | 17.3
12 | COc1cc(-c2cc(C(=O)N3CCC(C(=O)NC4CCCn5c(C)nnc54)CC34CC4)n[nH]2)c(F)cn1 (mixture of isomers) [Example 492, (S)-4-(5-(5-fluoro-2-methoxypyridin-4-yl)-1H-pyrazole-3-carbonyl)-N—((S)-3-methyl-5,6,7,8-tetrahydro-[1,2,4]triazolo[4,3-a]pyridin-8-yl)-4-azaspiro[2.5]octane-7-carboxamide and (S)-4-(5-(5-fluoro-2-methoxypyridin-4-yl)-1H-pyrazole-3-carbonyl)-N—((R)-3-methyl-5,6,7,8-tetrahydro-[1,2,4]triazolo[4,3-a]pyridin-8-yl)-4-azaspiro[2.5]octane-7-carboxamide] | – | 454 | > 10000
13 | COc1cc(-c2cc(C(=O)N3CCC(C(=O)Nc4cnn5cc(C(C)O)ccc45)CC34CC4)n[nH]2)c(F)cn1 (mixture of isomers) [Example 495, (S)-4-(5-(5-fluoro-2-methoxypyridin-4-yl)-1H-pyrazole-3-carbonyl)-N-(6-((S)-1-hydroxyethyl)pyrazolo[1,5-a]pyridin-3-yl)-4-azaspiro[2.5]octane-7-carboxamide and (S)-4-(5-(5-fluoro-2-methoxypyridin-4-yl)-1H-pyrazole-3-carbonyl)-N-(6-((R)-1-hydroxyethyl)pyrazolo[1,5-a]pyridin-3-yl)-4-azaspiro[2.5]octane-7-carboxamide] | – | 15.7 | 186
14 | COc1cc(-c2cc(C(=O)N3CCC(C(=O)NC4CCC(C(F)(F)F)C(O)C4)CC34CC4)n[nH]2)c(F)cn1 (mixture of isomers) [Example 501, (S)-4-(5-(5-fluoro-2-methoxypyridin-4-yl)-1H-pyrazole-3-carbonyl)-N-((1R,3R,4S)-3-hydroxy-4-(trifluoromethyl)cyclohexyl)-4-azaspiro[2.5]octane-7-carboxamide and (S)-4-(5-(5-fluoro-2-methoxypyridin-4-yl)-1H-pyrazole-3-carbonyl)-N-((1S,3S,4R)-3-hydroxy-4-(trifluoromethyl)cyclohexyl)-4-azaspiro[2.5]octane-7-carboxamide] | – | 5.4 | 13
